Measurements taken from patent US10858356B2, “Pyrazolopyridine derivative having GLP-1 receptor agonist effect” (Chugai Seiyaku Kabushiki Kaisha, priority 2016, dated 2020).

target: human GLP1R (Homo sapiens (Human), UniProt P43220); experiment: In vitro cAMP signal activation in human GLP1R stably-expressing cell line (hGLP1R-HEK293); type: cell-based; conditions: cAMP concentration in hGLP1R-HEK293; 100% = 1 nM human GLP-1 (7-37)
Procedure: <Test Example 1> Measurement of In Vitro cAMP Signal Activation of a Compound in Human GLP1R
A human GLP1R stably-expressing cell line (hGLP1R-HEK293) was used in the experiment. The cells were cultured in a Dulbecco's modified Eagle's medium (DMEM) containing 10% fetal bovine serum (Sigma-Aldrich), 100 units/mL penicillin G and 100 μg/mL streptomycin sulfate (Gibco), and 500 μg/mL Geneticin (Gibco), under a moist atmosphere containing 5% CO2, at 37° C.
hGLP1R-HEK293 was seeded in 96 well plates at 2.0×10^4 cells per well and cultured over night. The medium for culturing the cells was changed to 50 μL of Medium A (DMEM, 20 mM HEPES, 0.05% BSA, 0.5 mM 3-isobutyl-1-methylxanthine) the next day, and the cells were incubated at 37° C. for 30 min. Then, 50 μL of Medium B (DMEM, 20 mM HEPES, 0.05% BSA, 0.5 mM 3-isobutyl-1-methylxanthine) containing GLP-1 or the compound was added, and the cells were incubated at 37° C. for an additional 30 min. Then, 100 μL of Assay lysis buffer (Applied Bioscience) was added, and the cells were incubated at 37° C. for 30 min. The cAMP concentration was quantified using cAMP HiRange kit (Cisbio Bioassays).
By setting the cAMP concentration when the human GLP-1 (7-37) was put into action at a concentration of 1 nM to 100%, the cAMP concentration of each well was converted to a reaction rate (%).

Sequence of human GLP1R (P43220 24-463): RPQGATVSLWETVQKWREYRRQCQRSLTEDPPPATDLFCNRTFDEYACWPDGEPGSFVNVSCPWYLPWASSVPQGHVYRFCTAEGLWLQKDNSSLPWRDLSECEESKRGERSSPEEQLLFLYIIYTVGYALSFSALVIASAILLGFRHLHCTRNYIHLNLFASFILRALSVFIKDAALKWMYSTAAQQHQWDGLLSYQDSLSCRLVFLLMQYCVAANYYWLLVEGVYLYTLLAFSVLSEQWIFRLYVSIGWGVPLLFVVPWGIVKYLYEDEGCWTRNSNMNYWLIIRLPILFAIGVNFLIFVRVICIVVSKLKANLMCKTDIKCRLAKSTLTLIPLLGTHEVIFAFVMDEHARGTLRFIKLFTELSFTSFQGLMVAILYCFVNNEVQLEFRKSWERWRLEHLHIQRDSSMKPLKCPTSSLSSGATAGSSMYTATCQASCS

| Compound | EC50 [nM] |
| --- | --- |
| Cc1cc(-n2nc3c(c2-n2ccn(-c4ccc5c(cnn5CC(F)(F)F)c4)c2=O)CN(C(=O)c2cc4cc(C5CCOCC5)ccc4n2[C@@]2(c4noc(=O)[nH]4)C[C@@H]2C)CC3)cc(C)c1F [Example 10, 3-[(1S,2S)-1-[2-[2-(4-fluoro-3,5-dimethylphenyl)-3-[2-oxo-3-[1-(2,2,2-trifluoroethyl)indazol-5-yl]imidazol-1-yl]-6,7-dihydro-4H-pyrazolo[4,3-c]pyridine-5-carbonyl]-5-(oxan-4-yl)indol-1-yl]-2-methylcyclopropyl]-4H-1,2,4-oxadiazol-5-one] | 2.8 |
| Cc1cc(-n2nc3c(c2-n2ccn(-c4ccc5c(cnn5C)c4)c2=O)CN(C(=O)c2cc4cc(C5CCOC6(CCCC6)C5)ccc4n2[C@@]2(c4noc(=O)[nH]4)C[C@@H]2C)CC3)cc(C)c1F (stereo partly drawn) [compound 75, 3-[(1S,2S)-1-[2-[2-(4-fluoro-3,5-dimethylphenyl)-3-[3-(1-methylindazol-5-yl)-2-oxoimidazol-1-yl]-6,7-dihydro-4H-pyrazolo[4,3-c]pyridine-5-carbonyl]-5-(6-oxaspiro[4.5]decan-9-yl)indol-1-yl]-2-methylcyclopropyl]-4H-1,2,4-oxadiazol-5-one] | 6.2 |
| COCCn1ncc2cc(-n3ccn(-c4c5c(nn4-c4cc(C)c(F)c(C)c4)CCN(C(=O)c4cc6cc(C7CCOCC7)cnc6n4[C@@]4(c6noc(=O)[nH]6)C[C@@H]4C)C5)c3=O)ccc21 [compound 56, 3-[(1S,2S)-1-[2-[2-(4-fluoro-3,5-dimethylphenyl)-3-[3-[1-(2-methoxyethyl)indazol-5-yl]-2-oxoimidazol-1-yl]-6,7-dihydro-4H-pyrazolo[4,3-c]pyridine-5-carbonyl]-5-(oxan-4-yl)pyrrolo[2,3-b]pyridin-1-yl]-2-methylcyclopropyl]-4H-1,2,4-oxadiazol-5-one] | 3.4 |
| Cc1cc(-n2nc3c(c2-n2ccn(-c4ccc5[nH]ncc5c4)c2=O)[C@H](C)N(C(=O)c2cc4cc(C5CCOC(C)(C)C5)ccc4n2[C@@]2(c4noc(=O)[nH]4)C[C@@H]2C)CC3)cc(C)c1F (stereo in doubt) [Example 34, 3-[(1S,2S)-1-[5-[(4S)-2,2-dimethyloxan-4-yl]-2-[(4S)-2-(4-fluoro-3,5-dimethylphenyl)-3-[3-(1H-indazol-5-yl)-2-oxoimidazol-1-yl]-4-methyl-6,7-dihydro-4H-pyrazolo[4,3-c]pyridine-5-carbonyl]indol-1-yl]-2-methylcyclopropyl]-4H-1,2,4-oxadiazol-5-one] | 3 |
| Cc1cc(-n2nc3c(c2-n2ccn(-c4ccc5c(cnn5C)c4Cl)c2=O)[C@H](C)N(C(=O)c2cc4cc(C5CCOCC5)ccc4n2[C@@]2(c4noc(=O)[nH]4)C[C@@H]2C)CC3)cc(C)c1F [compound 72, 3-[(1S,2S)-1-[2-[(4S)-3-[3-(4-chloro-1-methylindazol-5-yl)-2-oxoimidazol-1-yl]-2-(4-fluoro-3,5-dimethylphenyl)-4-methyl-6,7-dihydro-4H-pyrazolo[4,3-c]pyridine-5-carbonyl]-5-(oxan-4-y)indol-1-yl]-2-methylcyclopropyl]-4H-1,2,4-oxadiazol-5-one] | 2.3 |
| Cc1cc(-n2nc3c(c2-n2ccn(-c4ccc5c(cnn5C)c4)c2=O)[C@H](C)N(C(=O)c2cc4cc(C5CCOCC5)ccc4n2[C@@]2(c4noc(=O)[nH]4)C[C@@H]2C)[C@H](C)C3)cc(C)c1F [compound 80, 3-[(1S,2S)-1-[2-[(4S,6R)-2-(4-fluoro-3,5-dimethylphenyl)-4,6-dimethyl-3-[3-(1-methylindazol-5-yl)-2-oxoimidazol-1-yl]-6,7-dihydro-4H-pyrazolo[4,3-c]pyridine-5-carbonyl]-5-(oxan-4-yl)indol-1-yl]-2-methylcyclopropyl]-4H-1,2,4-oxadiazol-5-one] | 2.4 |
| COCCn1ncc2cc(-n3ccn(-c4c5c(nn4-c4cc(C)c(F)c(C)c4)CCN(C(=O)c4cc6cc(C7CCOC(C)(C)C7)ccc6n4[C@@]4(c6noc(=O)[nH]6)C[C@@H]4C)C5)c3=O)ccc21 (stereo partly drawn) [compound 76, 3-[(1S,2S)-1-[5-(2,2-dimethyloxan-4-yl)-2-[2-(4-fluoro-3,5-dimethylphenyl)-3-[3-[1-(2-methoxyethyl)indazol-5-yl]-2-oxoimidazol-1-yl]-6,7-dihydro-4H-pyrazolo[4,3-c]pyridine-5-carbonyl]indol-1-yl]-2-methylcyclopropyl]-4H-1,2,4-oxadiazol-5-one] | 2.4 |

Stronger by EC50, values ahead:

| EC50 [nM] | Compound |
| --- | --- |
| 2.2 | Cc1cc(-n2nc3c(c2-n2ccn(-c4ccc5c(cnn5[C@H]5CCOC5)c4F)c2=O)[C@H](C)N(C(=O)c2cc4cc([C@H]5CCOC(C)(C)C5)ccc4n2[C@@]2(c4noc(=O)[nH]4)C[C@@H]2C)CC3)cc(C)c1F [Example 40, 3-[(1S,2S)-1-[5-[(4S)-2,2-dimethyloxan-4-yl]-2-[(4S)-2-(4-fluoro-3,5-dimethylphenyl)-3-[3-[4-fluoro-1-[(3S)-oxolan-3-yl]indazol-5-yl]-2-oxoimidazol-1-yl]-4-methyl-6,7-dihydro-4H-pyrazolo[4,3-c]pyridine-5-carbonyl]indol-1-yl]-2-methylcyclopropyl]-4H-1,2,4-oxadiazol-5-one] |
| 2.1 | COCCn1ncc2c(F)c(-n3ccn(-c4c5c(nn4-c4cc(C)c(F)c(C)c4)CCN(C(=O)c4cc6cc([C@H]7CCOC(C)(C)C7)ccc6n4[C@@]4(c6noc(=O)[nH]6)C[C@@H]4C)[C@H]5C)c3=O)ccc21 [Example 36, 3-[(1S,2S)-1-[5-[(4S)-2,2-dimethyloxan-4-yl]-2-[(4S)-2-(4-fluoro-3,5-dimethylphenyl)-3-[3-[4-fluoro-1-(2-methoxyethyl)indazol-5-yl]-2-oxoimidazol-1-yl]-4-methyl-6,7-dihydro-4H-pyrazolo[4,3-c]pyridine-5-carbonyl]indol-1-yl]-2-methylcyclopropyl]-4H-1,2,4-oxadiazol-5-one] |
| 1.9 | COc1cc(-n2ccn(-c3c4c(nn3-c3cc(C)c(F)c(C)c3)CCN(C(=O)c3cc5cc(C6CCOCC6)ccc5n3[C@@]3(c5noc(=O)[nH]5)C[C@@H]3C)[C@H]4C)c2=O)ccc1OC(C)(C)CO [Example 20, 3-[(1S,2S)-1-[2-[(4S)-2-(4-fluoro-3,5-dimethylphenyl)-3-[3-[4-(1-hydroxy-2-methylpropan-2-yl)oxy-3-methoxyphenyl]-2-oxoimidazol-1-yl]-4-methyl-6,7-dihydro-4H-pyrazolo[4,3-c]pyridine-5-carbonyl]-5-(oxan-4-yl)indol-1-yl]-2-methylcyclopropyl]-4H-1,2,4-oxadiazol-5-one] |
| 1.6 | COCCn1c(=O)n(C)c2cc(-n3ccn(-c4c5c(nn4-c4cc(C)c(F)c(C)c4)CCN(C(=O)c4cc6cc(C7CCOC(C)(C)C7)ccc6n4[C@@]4(c6noc(=O)[nH]6)C[C@@H]4C)[C@H]5C)c3=O)ccc21 (stereo in doubt) [Example 33, 3-[(1S,2S)-1-[5-[(4S)-2,2-dimethyloxan-4-yl]-2-[(4S)-2-(4-fluoro-3,5-dimethylphenyl)-3-[3-[1-(2-methoxyethyl)-3-methyl-2-oxobenzoimidazol-5-yl]-2-oxoimidazol-1-yl]-4-methyl-6,7-dihydro-4H-pyrazolo[4,3-c]pyridine-5-carbonyl]indol-1-yl]-2-methylcyclopropyl]-4H-1,2,4-oxadiazol-5-one] |
| 1.4 | Cc1cc(-n2nc3c(c2-n2ccn(-c4ccc5c(cnn5CC(C)(C)O)c4F)c2=O)[C@H](C)N(C(=O)c2cc4cc(C5CCOCC5)ccc4n2[C@@]2(c4noc(=O)[nH]4)C[C@@H]2C)CC3)cc(C)c1F [Example 30, 3-[(1S,2S)-1-[2-[(4S)-2-(4-fluoro-3,5-dimethylphenyl)-3-[3-[4-fluoro-1-(2-hydroxy-2-methylpropyl)indazol-5-yl]-2-oxoimidazol-1-yl]-4-methyl-6,7-dihydro-4H-pyrazolo[4,3-c]pyridine-5-carbonyl]-5-(oxan-4-yl)indol-1-yl]-2-methylcyclopropyl]-4H-1,2,4-oxadiazol-5-one] |
| 1.3 | Cc1cc(-n2nc3c(c2-n2ccn(-c4ccc5c(C)nsc5c4)c2=O)[C@H](C)N(C(=O)c2cc4cc(C5CCOCC5)ccc4n2[C@@]2(c4noc(=O)[nH]4)C[C@@H]2C)CC3)cc(C)c1F [Example 18, 3-[(1S,2S)-1-[2-[(4S)-2-(4-fluoro-3,5-dimethylphenyl)-4-methyl-3-[3-(3-methyl-1,2-benzothiazol-6-yl)-2-oxoimidazol-1-yl]-6,7-dihydro-4H-pyrazolo[4,3-c]pyridine-5-carbonyl]-5-(oxan-4-yl)indol-1-yl]-2-methylcyclopropyl]-4H-1,2,4-oxadiazol-5-one] |
| 1 | Cc1cc(-n2nc3c(c2-n2ccn(-c4ccc5c(cnn5CC5(C)COC5)c4)c2=O)[C@H](C)N(C(=O)c2cc4cc(C5CCOCC5)ccc4n2[C@@]2(c4noc(=O)[nH]4)C[C@@H]2C)CC3)cc(C)c1F [Example 17, 3-[(1S,2S)-1-[2-[(4S)-2-(4-fluoro-3,5-dimethylphenyl)-4-methyl-3-[3-[1-[(3-methyloxetan-3-yl)methyl]indazol-5-yl]-2-oxoimidazol-1-yl]-6,7-dihydro-4H-pyrazolo[4,3-c]pyridine-5-carbonyl]-5-(oxan-4-yl)indol-1-yl]-2-methylcyclopropyl]-4H-1,2,4-oxadiazol-5-one] |
